Source: PMC5702617, “Novel peptide probes to assess the tensional state of fibronectin fibers in cancer” (Nature Communications, 2017)
Where two headings read alike, the source gives them in different places.

Legend:
[1] = In vitro plasma stability; type: in vitro ADME, human; conditions: RP-HPLC, means from three experiments; for stability in human blood plasma: 37°C
Procedure: The stability of peptides in blood is often limited as they are rapidly cleaved by catalytic enzymes found in tissue and blood, resulting in a short biological half-life. […] To verify whether the FnBPA5 peptide can be used for in vivo applications, we next performed a plasma stability test. The metabolic stability of the peptide radiotracer ^111In-FnBPA5 was tested in vitro by incubating the radiolabeled FnBPA5 at 37°C with human blood plasma, or water as control. The unbound peptide fraction was separated from the plasma proteins at different time points (0, 1, 24, 48, and 72 h) and was analyzed by reversed-phase high-pressure liquid chromatography (RP-HPLC).
After that, the samples were filtrated using a Thomson Single StEP Filter vial 0.45 μm PVDF (Thomson Instrument Company, Oceanside, USA) and the supernatant was analyzed by reversed-phase HPLC (Varian Prostar HPLC System, SpectraLab Scientific Inc., Canada) using a D-Bio Discovery Wide Pore C18 column (25 cm × 4.6 mm; 5 μm).

[2] = Biodistribution in PC-3 tumor grafted mice; type: in vivo, mouse; conditions: female, CD1 nude, mouse, in vivo, iv, 150 kBq (2.4 nmol), total radioactivity, PC-3 grafted mice, i.v. 150 kBq (2.4 nmol), mean ± SD, n = 4; for tissue to tissue ratio at 1 h: 1 h p.i.; for tissue to tissue ratio at 4 h: 4 h p.i.; for tissue to tissue ratio at 24 h: 24 h p.i.; for tissue to tissue ratio at 96 h: 96 h p.i.
Procedure: (§1) Experiments were performed 3–4 weeks after inoculation.
(§2) For the biodistribution experiments, PC-3 tumor grafted mice were injected into the tail vein with 150 kBq ^111In-FnBPA5 or ^111In-scrambled FnBPA5 (2.4 nmol, 100 µL PBS). For each peptide, groups of four mice were sacrificed at 1, 4, 24, and 96 h post injection. Blocking experiment (n = 4) was performed by injection of an excess of peptide (100 µg, 24 nmol in 100 µL PBS) directly before the administration of the corresponding radiolabeled peptide. The organs were collected, weighed and counted for activity with a γ counter (Packard Cobra II Auto, Gamma, PerkinElmer AG, Schwerzenbach, Switzerland) 4 h p.i. The results were expressed as a percentage of injected activity per gram of tissue (% IA per g tissue). The Student's t test analyses were considered as type 3 (two sample unequal variance) and statistical significance was assumed for p-values smaller than 0.05.

PC-3-bearing mice [3] = assay: Biodistribution in PC-3 tumor grafted mice; type: in vivo, mouse; conditions: PC-3 grafted mice, i.v. 150 kBq (2.4 nmol, 100 µL PBS), γ counter, mean ± SD, n = 4
Procedure: as §1, §2

PC-3-bearing mice [4] = assay: In vivo blocking experiment in PC-3 tumor grafted mice; design: species or system mouse
Procedure: as §2

PC-3-bearing mice [5] = assay: SPECT/CT imaging of PC-3-bearing mice; type: in vivo, mouse
Procedure: Thirty-three days from the inoculation of the tumor cells, the mice were intravenously injected with ~15 MBq ^111In-FnBPA5 resp. ^111In-scrambled FnBPA5-NODAGA (2.4 nmol, 100 µL PBS) into the tail vein. […] The images were reconstituted and processed with InVivoScope® software (Bioscan Inc., Washington DC, USA).

[6] = read-out: Tumor-to-kidney ratio
[7] = 10-fold excess of unlabeled FnBPA5 (24 nmol) pre-injected, 4 h p.i.
[8] = 4h p.i. blocking: corresponding unlabeled peptide (24 nmol) i.v. directly before the radiolabeled peptide, PC-3 grafted mice, mean ± SD, n = 4

CC[C@H](C)[C@H](NC(=O)CNC(=O)[C@H](CCCCN)NC(=O)[C@@H](NC(=O)[C@H](CO)NC(=O)[C@H](CCC(=O)O)NC(=O)[C@H](CCC(=O)O)NC(=O)[C@H](CC(=O)O)NC(=O)[C@H](Cc1ccccc1)NC(=O)[C@H](CCC(=O)O)NC(=O)[C@@H](NC(=O)[C@H](CC(C)C)NC(=O)[C@H](CC(N)=O)NC(=O)[C@H](CO)NC(=O)[C@H](CCC(=O)O)NC(=O)[C@@H](NC(=O)[C@@H](NC(=O)[C@@H](NC(=O)[C@H](CCC(N)=O)NC(=O)CNC(=O)CNC(=O)CNC(=O)[C@@H](N)CSC1CC(=O)N(CCNC(=O)CCC(C(=O)O)N2CCN(CC(=O)O)CCN(CC(=O)O)CC2)C1=O)C(C)C)[C@@H](C)O)[C@@H](C)O)C(C)C)[C@@H](C)O)C(=O)N[C@H](C(=O)N[C@H](C(=O)NCC(=O)N[C@@H](C)C(=O)N[C@H](C(=O)N[C@@H](CO)C(=O)N[C@@H](CC(=O)O)C(=O)N[C@@H](Cc1c[nH]cn1)C(=O)N[C@H](C(=O)N[C@H](C(=O)N[C@H](C(=O)N[C@@H](CCC(=O)O)C(=O)N[C@@H](CC(=O)O)C(=O)N[C@H](C(=O)N[C@@H](CCCCN)C(=O)O)[C@@H](C)O)C(C)C)[C@@H](C)O)[C@@H](C)O)C(C)C)[C@@H](C)O)C(C)C (some centres unmarked) [111In-FnBPA5, metal not drawn]
stability in human blood plasma ([1]; 1 hour time point): high stability
stability in human blood plasma ([1]; later time point): very high stability
fraction intact in human blood plasma ([1]; filtered fresh human blood plasma, 37 °C, 72 h, 12 MBq): 80%
remaining at 72 h ([1]; filtered fresh human blood plasma, 37 °C, 72 h, 12 MBq, read-out: fraction intact in human blood plasma): ~80%
tissue to tissue ratio at 1 h ([2]; read-out: Tumor-to-blood ratio): 3.05 ± 1.65
tissue to tissue ratio at 1 h [2, 6]: 0.03
tissue to tissue ratio at 1 h ([2]; read-out: Tumor-to-liver ratio): 0.66 ± 0.22
tissue to tissue ratio at 4 h ([2]; read-out: Tumor-to-blood ratio): 9.68 ± 1.83
tissue to tissue ratio at 4 h [2, 6]: 0.03
tissue to tissue ratio at 4 h ([2]; read-out: Tumor-to-liver ratio): 1.18 ± 0.08
tissue to tissue ratio at 24 h ([2]; read-out: Tumor-to-blood ratio): 23.9 ± 2.52
tissue to tissue ratio at 24 h [2, 6]: 0.04
tissue to tissue ratio at 24 h ([2]; read-out: Tumor-to-liver ratio): 2.21 ± 0.25
tissue to tissue ratio at 96 h ([2]; read-out: Tumor-to-blood ratio): 34 ± 18.4
tissue to tissue ratio at 96 h [2, 6]: 0.05 ± 0.02
tissue to tissue ratio at 96 h ([2]; read-out: Tumor-to-liver ratio): 2.11 ± 0.82
Biodistribution, Blood (PC-3-bearing mice [3]; 1 h p.i.): 1.81 ± 0.62 IA% / g
Biodistribution, Bone (PC-3-bearing mice [3]; 1 h p.i.): 1.85 ± 0.21 IA% / g
Biodistribution, Heart (PC-3-bearing mice [3]; 1 h p.i.): 1.76 ± 0.51 IA% / g
Biodistribution, Intestines (PC-3-bearing mice [3]; 1 h p.i.): 2.27 ± 0.33 IA% / g
Biodistribution, Kidneys (PC-3-bearing mice [3]; 1 h p.i.): 140.58 ± 18.10 IA% / g
Biodistribution, Liver (PC-3-bearing mice [3]; 1 h p.i.): 7.52 ± 1.50 IA% / g
Biodistribution, Lung (PC-3-bearing mice [3]; 1 h p.i.): 2.88 ± 0.64 IA% / g
Biodistribution, Muscle (PC-3-bearing mice [3]; 1 h p.i.): 0.57 ± 0.07 IA% / g
Biodistribution, Pancreas (PC-3-bearing mice [3]; 1 h p.i.): 2.58 ± 1.27 IA% / g
Biodistribution, Spleen (PC-3-bearing mice [3]; 1 h p.i.): 7.01 ± 1.23 IA% / g
Biodistribution, Stomach (PC-3-bearing mice [3]; 1 h p.i.): 3.07 ± 0.39 IA% / g
Biodistribution, Blood (PC-3-bearing mice [3]; 4 h p.i.): 0.48 ± 0.08 IA% / g
Biodistribution, Bone (PC-3-bearing mice [3]; 4 h p.i.): 1.32 ± 0.26 IA% / g
Biodistribution, Heart (PC-3-bearing mice [3]; 4 h p.i.): 0.91 ± 0.06 IA% / g
Biodistribution, Intestines (PC-3-bearing mice [3]; 4 h p.i.): 1.77 ± 0.12 IA% / g
Biodistribution, Kidneys (PC-3-bearing mice [3]; 4 h p.i.): 130.66 ± 10.32 IA% / g
Biodistribution, Liver (PC-3-bearing mice [3]; 4 h p.i.): 3.85 ± 0.16 IA% / g
Biodistribution, Lung (PC-3-bearing mice [3]; 4 h p.i.): 1.98 ± 0.12 IA% / g
Biodistribution, Muscle (PC-3-bearing mice [3]; 4 h p.i.): 0.50 ± 0.17 IA% / g
Biodistribution, Pancreas (PC-3-bearing mice [3]; 4 h p.i.): 2.31 ± 1.18 IA% / g
Biodistribution, Spleen (PC-3-bearing mice [3]; 4 h p.i.): 3.35 ± 0.33 IA% / g
Biodistribution, Stomach (PC-3-bearing mice [3]; 4 h p.i.): 2.46 ± 0.36 IA% / g
Biodistribution, Tumor (PC-3-bearing mice [3]; 4 h p.i.): 4.51 ± 0.15 IA% / g
Biodistribution, Blood (PC-3-bearing mice [3]; 24 h p.i.): 0.15 ± 0.008 IA% / g
Biodistribution, Bone (PC-3-bearing mice [3]; 24 h p.i.): 0.86 ± 0.117 IA% / g
Biodistribution, Heart (PC-3-bearing mice [3]; 24 h p.i.): 0.31 ± 0.025 IA% / g
Biodistribution, Intestines (PC-3-bearing mice [3]; 24 h p.i.): 0.57 ± 0.039 IA% / g
Biodistribution, Kidneys (PC-3-bearing mice [3]; 24 h p.i.): 92.36 ± 14.25 IA% / g
Biodistribution, Liver (PC-3-bearing mice [3]; 24 h p.i.): 1.64 ± 0.26 IA% / g
Biodistribution, Lung (PC-3-bearing mice [3]; 24 h p.i.): 1.05 ± 0.11 IA% / g
Biodistribution, Muscle (PC-3-bearing mice [3]; 24 h p.i.): 0.24 ± 0.034 IA% / g
Biodistribution, Pancreas (PC-3-bearing mice [3]; 24 h p.i.): 0.78 ± 0.47 IA% / g
Biodistribution, Spleen (PC-3-bearing mice [3]; 24 h p.i.): 1.38 ± 0.068 IA% / g
Biodistribution, Stomach (PC-3-bearing mice [3]; 24 h p.i.): 0.51 ± 0.15 IA% / g
Biodistribution, Tumor (PC-3-bearing mice [3]; 24 h p.i.): 3.59 ± 0.53 IA% / g
Biodistribution, Blood (PC-3-bearing mice [3]; 96 h p.i.): 0.06 ± 0.027 IA% / g
Biodistribution, Bone (PC-3-bearing mice [3]; 96 h p.i.): 0.50 ± 0.09 IA% / g
Biodistribution, Heart (PC-3-bearing mice [3]; 96 h p.i.): 0.14 ± 0.017 IA% / g
Biodistribution, Intestines (PC-3-bearing mice [3]; 96 h p.i.): 0.13 ± 0.02 IA% / g
Biodistribution, Kidneys (PC-3-bearing mice [3]; 96 h p.i.): 39.69 ± 4.79 IA% / g
Biodistribution, Liver (PC-3-bearing mice [3]; 96 h p.i.): 0.89 ± 0.12 IA% / g
Biodistribution, Lung (PC-3-bearing mice [3]; 96 h p.i.): 0.32 ± 0.038 IA% / g
Biodistribution, Muscle (PC-3-bearing mice [3]; 96 h p.i.): 0.095 ± 0.02 IA% / g
Biodistribution, Pancreas (PC-3-bearing mice [3]; 96 h p.i.): 0.18 ± 0.046 IA% / g
Biodistribution, Spleen (PC-3-bearing mice [3]; 96 h p.i.): 0.73 ± 0.417 IA% / g
Biodistribution, Stomach (PC-3-bearing mice [3]; 96 h p.i.): 0.31 ± 0.052 IA% / g
Biodistribution, Tumor (PC-3-bearing mice [3]; 96 h p.i.): 1.87 ± 0.773 IA% / g
effect of pre-injection of unlabeled peptide on accumulation (PC-3-bearing mice [4]; 24 nmol unlabeled peptide pre-injected, 4 h p.i., Student's t test, n = 4): significant reduction
blocking effect on uptake, liver (PC-3-bearing mice [4]; [7]): −58.2%
blocking effect on uptake, tumor tissue (PC-3-bearing mice [4]; [7]): −35.6%
Biodistribution with blocking, Blood (PC-3-bearing mice [4]; [8]): 0.29 ± 0.074 IA% / g
Biodistribution with blocking, Bone (PC-3-bearing mice [4]; [8]): 0.73 ± 0.31 IA% / g
Biodistribution with blocking, Heart (PC-3-bearing mice [4]; [8]): 0.37 ± 0.080 IA% / g
Biodistribution with blocking, Intestines (PC-3-bearing mice [4]; [8]): 0.53 ± 0.137 IA% / g
Biodistribution with blocking, Kidneys (PC-3-bearing mice [4]; [8]): 175.80 ± 32.48 IA% / g
Biodistribution with blocking, Liver (PC-3-bearing mice [4]; [8]): 1.61 ± 0.56 IA% / g
Biodistribution with blocking, Lung (PC-3-bearing mice [4]; [8]): 0.95 ± 0.317 IA% / g
Biodistribution with blocking, Muscle (PC-3-bearing mice [4]; [8]): 0.20 ± 0.12 IA% / g
Biodistribution with blocking, Pancreas (PC-3-bearing mice [4]; [8]): 0.96 ± 0.384 IA% / g
Biodistribution with blocking, Spleen (PC-3-bearing mice [4]; [8]): 1.33 ± 0.402 IA% / g
Biodistribution with blocking, Stomach (PC-3-bearing mice [4]; [8]): 1.13 ± 0.14 IA% / g
Biodistribution with blocking, Tumor (PC-3-bearing mice [4]; [8]): 2.91 ± 0.70 IA% / g
SPECT/CT distribution (PC-3-bearing mice [5]; ~15 MBq (2.4 nmol, 100 µL PBS) i.v., up to 96 h p.i.): mainly accumulated in the kidneys
SPECT/CT distribution after kidney removal (PC-3-bearing mice [5]; ~15 MBq i.v., 96 h p.i., post mortem, kidneys removed): predominant uptake in the tumor, liver, and spleen
